Assay results as given in BindingDB's records for PubMed 20033049 (Institute).

Experiments:
[1] = Inhibition of TEL fused BMX (unknown origin) transformed in mouse BaF3 cells
[2] = Inhibition of TEL fused BLK (unknown origin) transformed in mouse BaF3 cells

- IC50 [1]: 0.4 nM
- IC50 [2]: 20 nM
Compound: C=CC(=O)Nc1cccc(Oc2nc(Nc3ccc(N4CCN(C)CC4)cc3)ncc2Cl)c1
